Test results as given in patent US4663326A, “Pyrazolo[4,3-d]pyrimidine-5,7-(4H,6H)dione or -5-thione-7-one analogs” (Warner-Lambert Company, priority 1985, dated 1987).
pIC50: −log10 of the molar value.

What was measured:
Type 1 Phosphodiesterase = assay: PDE inhibition, Type 1 phosphodiesterase, smooth muscle (bovine coronary arteries); format: biochemical; details: 1 × 10^-5 M
Source text: The method of Thompson, et al (Thompson, W. J., Terasaki, W. L., Epstein, P. M., Strada, S. J., Adv. Cyclic Nucleotide Res., 10:69-92, 1979), with minor modifications, was used to isolate phosphodiesterases from vascular smooth muscle. Bovine coronary arteries (right, anterior descending, and left circumflex arteries) from hearts obtained from a local slaughterhouse were used for these studies. Arteries from two hearts were used for each isolation. Hearts were kept on ice and the arteries were dissected within two hours after the animals were sacrificed. After removing all fat and connective tissue, the arteries were everted, cut into cubes with a single edge razor blade and homogenized with a Brinkman Polytron three times at a rheostat setting of 10.0 in four volumes of the PDE isolation buffer (10 mM Tris-HCl/pH 7.5, 2 mM MgCl2, and 1 mM dithiothreitol). The resulting homogenate was sonicated (30 sec/ml homogenate) and then centrifuged at 30,000×g for 20 minutes. This and all subsequent procedures were performed at 4° C. The resulting supernatant was filtered through four layers of gauze, and applied to a DEAE-cellulose column (30×1.5 cm), prepared as described by Cheung (Cheung, W. Y., Biochim. Biopphys. Acta, 191:303-315, 1969), and equilibrated with freshly prepared 70 mM sodium acetate/5 mM 2-mercaptoethanol (pH 6.5). The column was then washed with 2-3 bed volumes of sodium acetate/2-mercaptoethanol, after which the phosphodiesterases were eluted from the column using a continuous 70-1,000 mM sodium acetate gradient (pH 6.5, containing 5 mM 2-mercaptoethanol; total volume 400 ml). The flow rate was approximately equal to 25 ml/hr. Eight ml fractions were collected and assayed for cyclic AMP- and cyclic GMP-phosphodiesterase activity in the presence and absence of 0.1 units of calmodulin and 10 mM CaCl2. Appropriate fractions were pooled and dialyzed against 70 mM sodium acetate/5 mM 2-mercaptoethanol for 20 hours.
Following complete separation, the combined phosphodiesterase fractions were concentrated to 14% of the original volume using an Amicon ultrafiltration cell fitted with a UM-10 membrane, according to the method of Wells, et al (Wells, J. N., Baird, C. E., Wu, Y. J., Hardman, J. G., Biochim. Biophys. Acta, 384:430-442, 1975). Following concentration, the protein was then diluted to 65% with ethylene glycol monoethyl ether, and stored at -20° C.
Phosphodiesterase activity was measured as described previously (Weishaar, P. E., Quade, M., Boyd, D., Schenden, J., Mark, S. S., Kaplan, H. R., Drug Devel. Res., 3:517-534, 1983), in a reaction medium containing 40 mM Tris-HCl (pH 8.0), 5 mM MgCl and 4 mM 2-mercaptoethanol. Unless otherwise noted, the concentration of substrate (^3 H-cyclic AMP or ^3 H-cyclic GMP) was 1.0 μM. […]

[1] = biological target: T1, adenosine receptors (designated A1) (Rattus norvegicus, UniProt P25099); assay: Adenosine receptor binding - A1 receptor affinity (RBA1), [3H]-CHA displacement, rat whole brain minus cerebellum and brainstem membranes; design: species or system rat (male Long Evans); details: 1.0 nM [3H]-CHA, 25° C., pH 7.7; repeat tests (Test 1-4) one line each; read-out: RBA-1 (IC50, adenosine A1 affinity)
T1 construct: Whole brain minus cerebellum and brainstem from male Long Evans rats (150-200 g); from tissue; host or cells: whole brain minus cerebellum and brainstem, male Long Evans rats, membranes
T1 sequence (P25099 1-326): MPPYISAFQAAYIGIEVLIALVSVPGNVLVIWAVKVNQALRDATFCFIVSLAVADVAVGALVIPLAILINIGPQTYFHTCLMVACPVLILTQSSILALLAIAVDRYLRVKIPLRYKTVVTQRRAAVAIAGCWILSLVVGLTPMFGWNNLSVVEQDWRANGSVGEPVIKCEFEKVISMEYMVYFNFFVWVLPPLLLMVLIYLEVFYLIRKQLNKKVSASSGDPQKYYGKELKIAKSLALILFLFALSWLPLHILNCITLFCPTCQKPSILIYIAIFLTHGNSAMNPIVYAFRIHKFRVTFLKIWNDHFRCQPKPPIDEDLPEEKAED
Procedure: ADENOSINE RECEPTOR BINDING-A1 RECEPTOR AFFINITY (RBA1)
Whole brain minus cerebellum and brainstem from male Long Evans rats (150-200 g) was homogenized in 30 volumes of ice-cold 0.05M Tris-HCl buffer pH 7.7 using a Brinkman Polytron PT-10, (setting number 6 for 20 seconds) and centrifuged for ten minutes at 20,000×g (Sorvall RC-2), 4° C. The supernatant was discarded, and the pellet was resuspended and centrifuged as before. The pellet was resuspended in 20 ml Tris-HCl buffer containing two International Units/ml of adenosine deaminase (Sigma type III from calf intestinal mucosa), incubated at 37° C. for 30 minutes, then subsequently at 0° C. for ten minutes. The homogenate was again centrifuged, and the final pellet was resuspended in ice-cold 0.05M Tris-HCl buffer pH 7.7 to a concentration of 20 mg/ml original wet tissue weight and used immediately.
Tissue homogenate (10 mg/ml) was incubated in 0.05M Tris-HCl buffer pH 7.7 containing 1.0 nM [^3 H]-N^6 -cyclohexyladenosine (^3 H]-CHA) with or without test agents in triplicate for one hour at 25° C. Incubation volume was 2 ml. Unbound [^3 H]-CHA was separated by rapid filtration under reduced pressure through Whatman glass fiber (GF/B) filters. The filters were rinsed three times with 5 ml of ice cold 0.05M Tris-HCl buffer pH 7.7. The radio-labeled ligand retained on the filter was measured by liquid scintillation spectrophotometry after shaking the filters for one hour or longer on a mechanical shaker in 10 ml of Beckman Ready-Solv HP scintillation cocktail.
Nonspecific binding was defined as the binding which occurred in the presence of 1 mM theophylline. The concentration of test agent which inhibited 50% of the specific binding (IC50) was determined by nonlinear computer curve fit. The Scatchard plot was calculated by linear regression of the line obtained by plotting the amount of radioligand bound ([…]) versus [bound radioligand/free radioligand].Since the amount of radioligand bound was a small fraction of the total amount added, free radioligand was defined as the concentration (nM) of radioligand added to the incubation mixture. The Hill coefficient was calculated by linear regression of the line obtained by plotting the log of the bound radioligand vs the log of the [bound radioligand/(Bmax -bound radioligand)]. The maximal number of binding sites (Bmax) was calculated from the Scatchard plot.

Row | Structure (SMILES) | % Inhibition of 3H-cAMP Hydrolysis, Type 1 Phosphodiesterase (Type 1 Phosphodiesterase) | % Inhibition of 3H-cGMP Hydrolysis, Type 1 Phosphodiesterase (Type 1 Phosphodiesterase) | pIC50 [1]
1 | Cc1nn(C)c2c(=O)[nH]c(=O)[nH]c12 [Example 1, 1,3-Dimethylpyrazolo[4,3-d]pyrimidine-5,7-(4H, 6H)dione] | N (0-20% inhibition at 1 × 10^-5 M) | N (0-20% inhibition at 1 × 10^-5 M) | 4.96
2 | CCn1nc(C)c2[nH]c(=S)[nH]c(=O)c21 [Example 2, 1-Ethyl-1,4,5,6-tetrahydro-3-methyl-pyrazolo[4,3-d]pyrimidine-5-thione-7-on] | N (0-20% inhibition at 1 × 10^-5 M) | N (0-20% inhibition at 1 × 10^-5 M) | 4.71
